Experiments:
PPE [1] = molecular target: T1, PPE (Sus scrofa, UniProt P00772); assay: Electrospray ionisation mass spectrometry of PPE incubated with one equivalent of inhibitor (adduct formation); type: binding, porcine; settings: time points 3 minutes to 5 hours, unbuffered
Method: Electrospray ionisation mass spectrometry. Electrospray ionisation mass spectra were recorded on a Micromass BioQ II-ZS triple quadruple mass spectrometer equipped with an electrospray interface. PPE at 80 pmol μl^−1 was incubated with one equivalent of inhibitor. Samples (5 μl) were removed at fixed time points, diluted with water:acetonitrile (1:1 v/v) containing 0.2% (v/v) formic acid to give a protein concentration of 5 pmol μl^−1 and analysed immediately. The resulting electrospray mass spectra were calibrated relative to native porcine pancreatic elastase PPE and processed using the MaxEnt algorithm and the spectra reported as centroided data.

[2] = molecular target: porcine pancreatic elastase PPE (Sus scrofa, UniProt P00772); assay: Enzyme assay: hydrolysis of Suc-AlaAlaProAla-pNa by PPE, measured at 405 nm; type: biochemical; settings: for IC50: substrate 100 μM, 25° C., pH 7.5, 10% DMSO; for inhibitory potency with pre-incubation of the clavam with PPE: with pre-incubation versus without
Method: Enzyme assays. Enzyme assays were performed using a Shimadzu 1601PC spectrophotometer equipped with a thermostatted multi-cell transport system. The hydrolysis of the para-nitroanilide substrate (Suc-AlaAlaProAla-pNa, 100 μM) was measured at 405 nm and at a constant temperature of 25° C. in 0.1 M Tris-HCl buffer (pH 7.5). At least quadruplicate measurements of the initial rate were determined at five inhibitor concentrations and data analysed using standard kinetic equations programmed into Excel (Microsoft Corp.) and Grafit (Erithacus Inc.). To aid solubility the clavam inhibitors were dissolved in DMSO to give a final concentration in the assay of 10% (v/v).
It is likely that the lack of inhibition observed from clavulanic acid (1) is due to the presence of a negative charge on the carboxylic acid on C-3 which prevents binding within the PPE active site.

PPE [3] = molecular target: T1, PPE; assay: 1H NMR analysis of incubation of PPE with clavulanic acid derivative (ester hydrolysis); type: biochemical, porcine; settings: D2O/CD3CN, 303K
Method: NMR experimental procedures. ^1H NMR analyses were performed at 500 MHz on a Bruker AMX500 instrument. Samples (450-500 μl) of PPE (ca. 3 mg) and clavulanic acid derivative (ca 3 mg) were dissolved in 10% (v/v) CD3CN in D2O. The temperature was regulated at 303K and the spectra were referenced to internal MeCN at 2.05 ppm.
Their identity was subsequently confirmed by doping experiments.

Sequence of porcine pancreatic elastase PPE (P00772 27-266): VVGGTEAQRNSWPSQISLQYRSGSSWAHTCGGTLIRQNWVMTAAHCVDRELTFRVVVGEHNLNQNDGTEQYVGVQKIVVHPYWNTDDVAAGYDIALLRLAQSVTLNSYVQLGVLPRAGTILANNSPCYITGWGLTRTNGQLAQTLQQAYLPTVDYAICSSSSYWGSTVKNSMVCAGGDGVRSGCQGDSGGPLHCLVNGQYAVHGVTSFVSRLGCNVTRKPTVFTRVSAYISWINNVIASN
T1 sequence (P00772 27-266): as above

SMILES | mass increments / adducts relative to native PPE (ESIMS) (PPE [1]) | inhibition of PPE ([2]; standard assay conditions) | PPE-catalysed hydrolysis of the ester side chain (1H NMR) (PPE [3]) | inhibition ([2]; pre-incubation of clavam with PPE 15 minutes) | inhibition ([2]; pre-incubation of clavam with PPE 30 minutes) | inhibition ([2]; pre-incubation of clavam with PPE 60 minutes) | IC50 ([2]; standard assay conditions) | inhibitory potency with pre-incubation of the clavam with PPE [2]
O=C(O)[C@H]1/C(=C/CO)O[C@@H]2CC(=O)N21 [compound 1, Clavulanic acid, reference compound] | no mass increments | did not inhibit PPE |  |  |  |  |  | 
O=C(OCc1ccccc1)[C@H]1/C(=C/CO)O[C@@H]2CC(=O)N21 [compound 9] | formation of an initial acyl-enzyme complex |  | just visible after a one hour incubation period | 43% | 87% | 93% | 184 µM | increased significantly
O=C(OCc1ccc([N+](=O)[O-])cc1)[C@H]1/C(=C/CO)O[C@@H]2CC(=O)N21 [compound 10] | formation of the 70 and 88 Da adducts appeared to be slightly faster |  |  |  |  |  | 187 µM | increased significantly
